# Patent US20090186079A1, “Oral and overall health by negating the biological effects of bacterial lipids” (priority 2008, published 2009)
# How the values were obtained:
# Format in all cases: cell-based
# [1] = tested on: Human primary gingival fibroblasts; assay: Detergent treatment of lipid-bearing surfaces, gingival fibroblast morphology; conditions: 0.1% detergent in PBS, 1 mL on PGDHC-coated wells, 4° C. overnight
# Method: (§1) Tissue culture flasks coated with bacterial lipids were used as a model of lipid-coated biological surfaces. Human primary gingival fibroblasts were maintained in 10 mm dishes in Minimun Essential Medium (GIBCO Cat #10370) 90% with 10% heat-inactivated FCS, penicillin (100 U/ml) and streptomycin ([…]). The cells were plated onto the 6-well tissue culture plate with individual wells treated as indicated below and grown at 37° C. in a humidified atmosphere of 5% CO2 in air.
# (§2) Lipid coating: The HPLC-purified P. gingivalis phosphoglycerol dihydroceramide (PGDHC) was dissolved in ethanol and added to the 6-well tissue culture plate (10 μg of lipid/well, 10.5 ng/mm^2). The solvent was allowed to evaporate in a laminar flow hood overnight leaving the lipid deposited on the culture well surface. Sham-coated control wells received only ethanol solvent.
# Detergents: 3-[(3-Cholamidopropyl) dimethylammonio]-1-propanesulfonate (CHAPS), Sodium cholate (Cholate), and Tween-20 (Tween) were dissolved at the concentration of 0.1% in phosphate buffered saline (Gibco cat. 1490). 1 mL of freshly prepared […] was added to the wells coated with P. gingivalis phosphoglycerol dihydroceramide. 1 mL of PBS was added to phosphoglycerol dihydroceramide-coated well as a control. The plate was incubated at 4° C. overnight on a rocking platform.
# Detergent treatment of uncoated wells had no effect on primary fibroblasts (data not shown).
# [2] = tested on: Human primary gingival fibroblasts; assay: Collagen coating of lipid-bearing surfaces, gingival fibroblast morphology
# Method: as §1, with “24-well” for “6-well”
# as §2, with “dihydroceramide” for “dihydroceramide (PGDHC)”, “24-well” for “6-well”, “(2” for “(10”
# Collagen coating: 0.5 mL of 50 μg/mL collagen dissolved in 0.02N Acetic acid was added to the 24-well tissue culture plate, and incubated at 4° C. overnight on a rocking platform. The collagen solution was aspirated, and the wells were washed with PBS.
# The treatments were done in triplicate.
# [3] = tested on: peripheral blood monocytes; assay: Morphological changes in peripheral blood monocytes on lipid-coated wells; conditions: treated with 1 μg/mL lipopolysaccharide, 26 hours
# Method: Tissue culture flasks coated with bacterial lipids were used as a model of lipid-coated biological surfaces. The HPLC-purified P. gingivalis lipids were dissolved in ethanol and added to the tissue culture plate. The solvent was allowed to evaporate in a laminar flow hood overnight leaving the lipid deposited on the culture well surface. Sham-coated control wells received only ethanol solvent.
# Peripheral blood monocytes were plated into 6-well culture dishes previously coated with the indicated lipid fractions (10 μg of lipid/well, 10.5 ng/mm^2) and were incubated for 26 hours. Culture (a) was the sham coating control, (b) was coated with the total lipid extract of P. gingivalis, (c) was coated with the P. gingivalis dihydroceramide fraction, (d) was coated with the phosphoethanolamine lipids and (e) was coated with the phosphoethanolamine dihydroceramide lipid fraction, (f) was treated with 1 μg/mL Salmonella typhimurium lipopolysaccharide.
Compound,negation of the biological effect of surface-deposited PGDHC [1],further results
"C[C@H](CCC(=O)NCCC[N+](C)(C)CCCS(=O)(=O)[O-])[C@H]1CC[C@H]2[C@@H]3[C@H](O)C[C@@H]4C[C@H](O)CC[C@]4(C)[C@H]3C[C@H](O)[C@]12C [CHAPS, 3-[(3-Cholamidopropyl)dimethylammonio]-1-propanesulfonate]",negated the biological effect of bacterial lipid,
"C[C@H](CCC(=O)[O-])[C@H]1CC[C@H]2[C@@H]3[C@H](O)C[C@@H]4C[C@H](O)CC[C@]4(C)[C@H]3C[C@H](O)[C@]12C.[Na+] [sodium cholate, Sodium cholate]",negated the biological effect of bacterial lipid,
collagen,,"effect of coating alone on primary fibroblasts ([2]; 0.5 mL of 50 μg/mL collagen, wells without lipid): did not have any effect; blocking of the biological effect of surface-deposited phosphoglycerol dihydroceramide ([2]; collagen coated on top of PGDHC (2 μg of lipid/well, 10.5 ng/mm^2)): blocked the biological effect"
lipopolysaccharide,,cell clustering of monocytes [3]: did not produce similar cell clustering
polyoxyethylene(20) sorbitan monolaurate [Tween-20],negated the biological effect of bacterial lipid,
